Measurements published in ChEMBL document CHEMBL4130562, “Design, Synthesis, and Antibacterial Evaluation of Oxazolidinones with Fused Heterocyclic C-Ring Substructure” (ACS Med Chem Lett, 2017).
Values after ≈ are worked out from the molar mass of the structure shown.

Columns and labels:
Type in all cases: functional
Enterococcus faecium = experiment: Antibacterial activity against Enterococcus faecium 19434 by microbroth dilution method
[1] = tested on: Staphylococcus epidermidis; experiment: Antibacterial activity against Staphylococcus epidermidis ATCC 14990 by microbroth dilution method
Staphylococcus aureus [2] = experiment: Antibacterial activity against Staphylococcus aureus ATCC 29213 by microbroth dilution method
Staphylococcus aureus [3] = experiment: Antibacterial activity against methicillin-resistant Staphylococcus aureus 1201984 by microbroth dilution method
Staphylococcus aureus [4] = experiment: Antibacterial activity against Staphylococcus aureus ATCC 33591 by microbroth dilution method
Staphylococcus aureus [5] = experiment: Antibacterial activity against Staphylococcus aureus ATCC 6538P by microbroth dilution method
Streptococcus pyogenes = experiment: Antibacterial activity against Streptococcus pyogenes ATCC 19615 by microbroth dilution method
Streptococcus pneumoniae = experiment: Antibacterial activity against Streptococcus pneumoniae 55143 by microbroth dilution method
Enterococcus faecalis = experiment: Antibacterial activity against Enterococcus faecalis ATCC 29212 by microbroth dilution method
Staphylococcus aureus [6] = experiment: Antibacterial activity against linezolid-resistant Staphylococcus aureus by microbroth dilution method
Haemophilus influenzae = experiment: Antibacterial activity against Haemophilus influenzae ATCC 49247 by microbroth dilution method

Row | Structure (SMILES) | MIC (Enterococcus faecium) | MIC [1] | MIC (Staphylococcus aureus [2]) | MIC (Staphylococcus aureus [3]) | MIC (Staphylococcus aureus [4]) | MIC (Staphylococcus aureus [5]) | MIC (Streptococcus pyogenes) | MIC (Streptococcus pneumoniae) | MIC (Enterococcus faecalis) | MIC (Staphylococcus aureus [6]) | MIC (Haemophilus influenzae)
1 | COC(=O)NC[C@H]1CN(c2ccc(-c3ccc4c(c3)NC(=O)CO4)c(F)c2)C(=O)O1 | 0.06 µg/mL (≈ 0.144 µM) | 0.06 µg/mL (≈ 0.144 µM) | 0.125 µg/mL (≈ 0.301 µM) | 0.06 µg/mL (≈ 0.144 µM) | 0.125 µg/mL (≈ 0.301 µM) | 0.06 µg/mL (≈ 0.144 µM) | 0.06 µg/mL (≈ 0.144 µM) | 0.06 µg/mL (≈ 0.144 µM) | 0.06 µg/mL (≈ 0.144 µM) | 0.5 µg/mL (≈ 1.2 µM) | 0.125 µg/mL (≈ 0.301 µM)
2 | Cl.NC[C@H]1CN(c2ccc(-c3ccc4c(c3)NC(=O)CO4)c(F)c2)C(=O)O1 | 4 µg/mL | 4 µg/mL | 8 µg/mL | 8 µg/mL | 16 µg/mL | 4 µg/mL | 4 µg/mL | 4 µg/mL | 8 µg/mL | > 32 µg/mL | 4 µg/mL
3 | CC(=S)NC[C@H]1CN(c2ccc(-c3ccc4c(c3)NC(=O)CO4)c(F)c2)C(=O)O1 | 0.06 µg/mL (≈ 0.144 µM) | 0.06 µg/mL (≈ 0.144 µM) | 0.06 µg/mL (≈ 0.144 µM) | 0.06 µg/mL (≈ 0.144 µM) | 0.125 µg/mL (≈ 0.301 µM) | 0.06 µg/mL (≈ 0.144 µM) | 0.06 µg/mL (≈ 0.144 µM) | 0.06 µg/mL (≈ 0.144 µM) | 0.06 µg/mL (≈ 0.144 µM) | 0.125 µg/mL (≈ 0.301 µM) | 0.125 µg/mL (≈ 0.301 µM)
4 | O=C1COc2c(cccc2-c2ccc(N3C[C@H](CO)OC3=O)cc2F)N1 | 32 µg/mL (≈ 89.3 µM) | 2 µg/mL (≈ 5.58 µM) | 2 µg/mL (≈ 5.58 µM) | 8 µg/mL (≈ 22.3 µM) | 4 µg/mL (≈ 11.2 µM) | 8 µg/mL (≈ 22.3 µM) | 8 µg/mL (≈ 22.3 µM) | 8 µg/mL (≈ 22.3 µM) | 16 µg/mL (≈ 44.7 µM) | > 32 µg/mL | 1 µg/mL (≈ 2.79 µM)
5 | CCC(=O)NC[C@H]1CN(c2ccc(-c3ccc4c(c3)NC(=O)CO4)c(F)c2)C(=O)O1 | 0.06 µg/mL (≈ 0.145 µM) | 0.125 µg/mL (≈ 0.302 µM) | 0.25 µg/mL (≈ 0.605 µM) | 0.5 µg/mL (≈ 1.21 µM) | 0.25 µg/mL (≈ 0.605 µM) | 0.125 µg/mL (≈ 0.302 µM) | 0.25 µg/mL (≈ 0.605 µM) | 0.5 µg/mL (≈ 1.21 µM) | 0.25 µg/mL (≈ 0.605 µM) | 1 µg/mL (≈ 2.42 µM) | 0.25 µg/mL (≈ 0.605 µM)
6 | O=C1NCCOc2ccc(-c3ccc(N4C[C@H](CO)OC4=O)cc3F)cc21 | 0.5 µg/mL (≈ 1.34 µM) | 0.25 µg/mL (≈ 0.671 µM) | 0.5 µg/mL (≈ 1.34 µM) | 0.5 µg/mL (≈ 1.34 µM) | 1 µg/mL (≈ 2.69 µM) | 0.25 µg/mL (≈ 0.671 µM) | 0.5 µg/mL (≈ 1.34 µM) | 0.5 µg/mL (≈ 1.34 µM) | 0.5 µg/mL (≈ 1.34 µM) | 4 µg/mL (≈ 10.7 µM) | 1 µg/mL (≈ 2.69 µM)
7 | O=C1COc2ccc(-c3ccc(N4C[C@H](CNC(=O)C5CCC5)OC4=O)cc3F)cc2N1 | 0.06 µg/mL (≈ 0.137 µM) | 0.25 µg/mL (≈ 0.569 µM) | 0.5 µg/mL (≈ 1.14 µM) | 0.5 µg/mL (≈ 1.14 µM) | 0.5 µg/mL (≈ 1.14 µM) | 0.125 µg/mL (≈ 0.284 µM) | 1 µg/mL (≈ 2.28 µM) | 1 µg/mL (≈ 2.28 µM) | 0.06 µg/mL (≈ 0.137 µM) | 2 µg/mL (≈ 4.55 µM) | 1 µg/mL (≈ 2.28 µM)
8 | O=C1O[C@@H](CO)CN1c1ccc(-c2ccc3c(c2)NC(=O)C2(CC2)O3)c(F)c1 | < 0.06 µg/mL | < 0.06 µg/mL | 0.25 µg/mL (≈ 0.65 µM) | < 0.06 µg/mL | 0.5 µg/mL (≈ 1.3 µM) | < 0.06 µg/mL | 0.25 µg/mL (≈ 0.65 µM) | 0.25 µg/mL (≈ 0.65 µM) | 0.125 µg/mL (≈ 0.325 µM) | 2 µg/mL (≈ 5.2 µM) | 0.5 µg/mL (≈ 1.3 µM)
9 | CS(=O)(=O)NC[C@H]1CN(c2ccc(-c3ccc4c(c3)NC(=O)CO4)c(F)c2)C(=O)O1 | 0.125 µg/mL (≈ 0.287 µM) | 0.5 µg/mL (≈ 1.15 µM) | 8 µg/mL (≈ 18.4 µM) | 1 µg/mL (≈ 2.3 µM) | 1 µg/mL (≈ 2.3 µM) | 0.25 µg/mL (≈ 0.574 µM) | 0.25 µg/mL (≈ 0.574 µM) | 0.25 µg/mL (≈ 0.574 µM) | 0.25 µg/mL (≈ 0.574 µM) | 8 µg/mL (≈ 18.4 µM) | 0.5 µg/mL (≈ 1.15 µM)
10 | O=C1O[C@@H](CO)CN1c1ccc(-c2ccc3c(c2)OCCO3)c(F)c1 | 2 µg/mL (≈ 5.79 µM) | 0.06 µg/mL (≈ 0.174 µM) | 4 µg/mL (≈ 11.6 µM) | 32 µg/mL (≈ 92.7 µM) | 32 µg/mL (≈ 92.7 µM) | 1 µg/mL (≈ 2.9 µM) | 0.5 µg/mL (≈ 1.45 µM) | 0.5 µg/mL (≈ 1.45 µM) | 4 µg/mL (≈ 11.6 µM) | > 32 µg/mL | 8 µg/mL (≈ 23.2 µM)
11 | O=C(CO)NC[C@H]1CN(c2ccc(-c3ccc4c(c3)NC(=O)CO4)c(F)c2)C(=O)O1 | 0.06 µg/mL (≈ 0.144 µM) | 0.25 µg/mL (≈ 0.602 µM) | 1 µg/mL (≈ 2.41 µM) | 1 µg/mL (≈ 2.41 µM) | 1 µg/mL (≈ 2.41 µM) | 0.25 µg/mL (≈ 0.602 µM) | 0.125 µg/mL (≈ 0.301 µM) | 0.125 µg/mL (≈ 0.301 µM) | 0.06 µg/mL (≈ 0.144 µM) | 4 µg/mL (≈ 9.63 µM) | 0.5 µg/mL (≈ 1.2 µM)
12 | O=C1COc2ccc(-c3ccc(N4C[C@H](CO)OC4=O)cc3F)nc2N1 | 0.25 µg/mL (≈ 0.696 µM) | < 0.06 µg/mL | 0.5 µg/mL (≈ 1.39 µM) | 0.25 µg/mL (≈ 0.696 µM) | 0.125 µg/mL (≈ 0.348 µM) | 0.125 µg/mL (≈ 0.348 µM) | 0.25 µg/mL (≈ 0.696 µM) | 0.25 µg/mL (≈ 0.696 µM) | 0.25 µg/mL (≈ 0.696 µM) | 4 µg/mL (≈ 11.1 µM) | 1 µg/mL (≈ 2.78 µM)
13 | O=C1COc2ccc(-c3ccc(N4C[C@H](CNC(=O)C5CC5)OC4=O)cc3F)cc2N1 | 0.125 µg/mL (≈ 0.294 µM) | 0.25 µg/mL (≈ 0.588 µM) | 1 µg/mL (≈ 2.35 µM) | 1 µg/mL (≈ 2.35 µM) | 1 µg/mL (≈ 2.35 µM) | 0.25 µg/mL (≈ 0.588 µM) | 0.5 µg/mL (≈ 1.18 µM) | 0.5 µg/mL (≈ 1.18 µM) | 0.25 µg/mL (≈ 0.588 µM) | 4 µg/mL (≈ 9.4 µM) | 1 µg/mL (≈ 2.35 µM)
14 | O=C1CCOc2ccc(-c3ccc(N4C[C@H](CO)OC4=O)cc3F)cc2N1 | 0.125 µg/mL (≈ 0.336 µM) | 0.06 µg/mL (≈ 0.161 µM) | 0.125 µg/mL (≈ 0.336 µM) | 0.125 µg/mL (≈ 0.336 µM) | 0.5 µg/mL (≈ 1.34 µM) | 0.06 µg/mL (≈ 0.161 µM) | 0.25 µg/mL (≈ 0.671 µM) | 0.25 µg/mL (≈ 0.671 µM) | 0.25 µg/mL (≈ 0.671 µM) | 2 µg/mL (≈ 5.37 µM) | 0.5 µg/mL (≈ 1.34 µM)
15 | O=C1COc2ccc(-c3ccc(N4C[C@H](CNC(=O)C(F)F)OC4=O)cc3F)cc2N1 | 0.06 µg/mL (≈ 0.138 µM) | 0.125 µg/mL (≈ 0.287 µM) | 0.5 µg/mL (≈ 1.15 µM) | 0.5 µg/mL (≈ 1.15 µM) | 0.5 µg/mL (≈ 1.15 µM) | 0.125 µg/mL (≈ 0.287 µM) | 0.25 µg/mL (≈ 0.574 µM) | 0.25 µg/mL (≈ 0.574 µM) | 0.06 µg/mL (≈ 0.138 µM) | 4 µg/mL (≈ 9.19 µM) | 0.5 µg/mL (≈ 1.15 µM)
16 | Cl.N=C(N)NC[C@H]1CN(c2ccc(-c3ccc4c(c3)NC(=O)CO4)c(F)c2)C(=O)O1 | > 32 µg/mL | > 32 µg/mL | > 32 µg/mL | > 32 µg/mL | > 32 µg/mL | > 32 µg/mL | > 32 µg/mL | > 32 µg/mL | > 32 µg/mL | > 32 µg/mL | > 32 µg/mL
17 | CC1(C)Oc2ccc(-c3ccc(N4C[C@H](CO)OC4=O)cc3F)cc2NC1=O | 0.25 µg/mL (≈ 0.647 µM) | < 0.06 µg/mL | 0.25 µg/mL (≈ 0.647 µM) | 0.25 µg/mL (≈ 0.647 µM) | 1 µg/mL (≈ 2.59 µM) | 0.125 µg/mL (≈ 0.324 µM) | 0.25 µg/mL (≈ 0.647 µM) | 0.25 µg/mL (≈ 0.647 µM) | 0.5 µg/mL (≈ 1.29 µM) | 16 µg/mL (≈ 41.4 µM) | 0.125 µg/mL (≈ 0.324 µM)
18 | C[C@H]1COc2c(N3CCN(C)CC3)c(F)cc3c(=O)c(C(=O)O)cn1c23.C[C@H]1COc2c(N3CCN(C)CC3)c(F)cc3c(=O)c(C(=O)O)cn1c23.O [LEVOFLOXACIN] | 4 µg/mL | 0.5 µg/mL | 0.125 µg/mL | 16 µg/mL | 0.25 µg/mL | 0.125 µg/mL | 0.06 µg/mL | 0.125 µg/mL | 0.25 µg/mL | > 32 µg/mL | 0.06 µg/mL
